Assay results: US11591367B2, “Melanocortin-1-receptor agonists” (DSM IP ASSETS B.V., priority 2016, dated 2023)
Where two headings read alike, the source gives them in different places. Values belong to the compound of their own block, whether it stands above or below them. Residues, ends and D or L forms follow the SMILES beside them.

What was measured:
human MC1 receptor = target: T1, human MC1 receptor (Homo sapiens, UniProt Q01726); test: Human MC1 receptor cAMP HTRF functional assay (MC1R stimulation); type: cell-based
T1 construct: expressed in transfected cells; host or cells: Chinese Hamster Ovary (CHO) cells
Description: Human MC1 Receptor Using cAMP HTRF Functional Assay:
Twenty seven (27) compounds were tested for agonist activity at the human MC1 receptor using cAMP HTRF (homogeneous time-resolved fluorescence) assays at eight (8) concentrations and in duplicate.
On the day of experimentation, compounds were tested at several concentrations in duplicate wells (n=2) to obtain a dose-response curve and an estimated EC50 value. Values obtained for the reference compound were compared to historical values obtained from the same receptor and used to validate the experimental session. For replicate determinations, the maximum variability tolerated in the test was of +/−20% around the average of the replicates.
Assay: After cultivation Chinese Hamster Ovary (CHO) cells were detached and incubated at a specific cell density in assay buffer. At this stage the CHO cells express the human MC1R at their surface. Agonist compounds were added at determined concentration and incubated for 30 min. Cells were lysed in detection buffer in order to extract cAMP. The amount of cAMP within the cells correlates with GPCR-activity, meaning that in this assay it correlates with MC1R-activity. cAMP was detected in a competitive HTRF assay for binding to an anti-cAMP-antibody.

[1] = test system: Skin samples (from abdominal plastic surgery); test: Ex-vivo skin pigmentation trial (melanin amount, Fontana-Masson stain); type: cell-based; details: 4 μl/200 μM of active applied topically daily; melanin amount at day 6; % increase versus untreated
Description: Skin samples (from abdominal plastic surgery) have been cut in pieces of approx. 8×3 mm (Øx thickness) and were cultured up to day 6 in an air-liquid interface in a perforated ring of stainless steel in contact with a culture medium (modified Williams'E medium), the culture medium has been renewed every three days. Six skin specimens have been used for each treatment. Each test sample (4 μl/200 μM of active) has been applied topically on top of each piece after gentle cleaning of the surface with a cotton pad followed by covering with a 6 ø mm delivery membrane, which procedure has been repeated daily. After 6 days of incubation, the melanin amount was assessed on twelve skin sections for each treatment by staining using a modified Fontana-Masson stain. The amount of melanin present in each slide has been evaluated by estimating the intensity and the distribution of grey tone: 8-bit grey-scale images for each treatment have been captured at the microscope. Then the colour space of the images have been transformed from RGB into L*a*b* images and each pixel of the picture has been evaluated according to its L* values. The obtained results have been transformed in ranks of L* and then normalized on the ratio between the selected area and the area of the slide. The result is indicated as % increase versus untreated at day 6.

[2] = agonist activity, CHO cells expressing human MC1R, 30 min incubation, 8 concentrations in duplicate, read-out: EC50 [nM], MC1R stimulation assay

T1 sequence (Q01726 whole entry): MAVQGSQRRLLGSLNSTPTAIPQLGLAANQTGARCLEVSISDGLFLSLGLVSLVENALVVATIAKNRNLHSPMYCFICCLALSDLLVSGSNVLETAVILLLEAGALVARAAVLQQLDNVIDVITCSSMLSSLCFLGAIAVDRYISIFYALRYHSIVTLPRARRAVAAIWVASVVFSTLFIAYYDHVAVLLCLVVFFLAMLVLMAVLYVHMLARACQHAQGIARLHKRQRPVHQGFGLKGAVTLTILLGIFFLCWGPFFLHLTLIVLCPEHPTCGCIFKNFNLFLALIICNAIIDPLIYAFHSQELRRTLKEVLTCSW

Compound: N=C(N)NCCC[C@H](NC(=O)[C@@H](Cc1ccccc1)NC(=O)[C@H](Cc1c[nH]cn1)NC(=O)CNC(=O)c1ccccc1)C(=O)N[C@@H](Cc1c[nH]c2ccccc12)C(N)=O [(I-a), Bz-Gly-His-D-Phe-Arg-Trp-NH2 *2TFA] (HELM PEPTIDE1{[O=C(c1ccccc1)[*:2]].G.H.[dF].R.W.[am]}$$$$V2.0)
EC50 (human MC1 receptor; [2]): 0.041 nM
skin pigmentation increase versus untreated [1]: +18%

Compound: N=C(N)NCCC[C@H](NC(=O)[C@@H](Cc1ccccc1)NC(=O)[C@H](Cc1c[nH]cn1)NC(=O)CNC(=O)c1ccccc1)C(=O)N[C@H](Cc1ccc2ccccc2c1)C(N)=O [(I-b), Bz-Gly-His-D-Phe-Arg-D-2-NaphAla-NH2 *2TFA] (HELM PEPTIDE1{[O=C(c1ccccc1)[*:2]].G.H.[dF].R.[O=C([C@@H](Cc1ccc2ccccc2c1)N[*:1])[*:2]].[am]}$$$$V2.0)
EC50 (human MC1 receptor; [2]): 0.25 nM

Compound: N=C(N)NCCC[C@H](NC(=O)[C@@H](Cc1ccccc1)NC(=O)[C@H](Cc1c[nH]cn1)NC(=O)CNC(=O)c1ccccc1)C(=O)N[C@@H](Cc1ccc2ccccc2c1)C(N)=O [(I-c), Bz-Gly-His-D-Phe-Arg-L-2-NaphAla-NH2 *2TFA] (HELM PEPTIDE1{[O=C(c1ccccc1)[*:2]].G.H.[dF].R.[O=C([C@H](Cc1ccc2ccccc2c1)N[*:1])[*:2]].[am]}$$$$V2.0)
EC50 (human MC1 receptor; [2]): 0.11 nM

Compound: CCCN(CCC)C(=O)[C@@H](Cc1c[nH]c2ccccc12)NC(=O)[C@H](CCCNC(=N)N)NC(=O)[C@@H](Cc1ccccc1)NC(=O)[C@H](Cc1c[nH]cn1)NC(=O)CNC(=O)c1ccccc1 [(I-d), Bz-Gly-His-D-Phe-Arg-D-Trp-N(Propyl)2 *2TFA] (HELM PEPTIDE1{[O=C(c1ccccc1)[*:2]].G.H.[dF].R.[dW].[CCCN(CCC)[*:1]]}$$$$V2.0)
EC50 (human MC1 receptor; [2]): 0.42 nM
skin pigmentation increase versus untreated [1]: +21%

Compound: CCCN(CCC)C(=O)[C@H](Cc1c[nH]c2ccccc12)NC(=O)[C@H](CCCNC(=N)N)NC(=O)[C@@H](Cc1ccccc1)NC(=O)[C@H](Cc1c[nH]cn1)NC(=O)CNC(=O)c1ccccc1 [(I-e), Bz-Gly-His-D-Phe-Arg-Trp-N(Propyl)2 *2TFA] (HELM PEPTIDE1{[O=C(c1ccccc1)[*:2]].G.H.[dF].R.W.[CCCN(CCC)[*:1]]}$$$$V2.0)
EC50 (human MC1 receptor; [2]): 0.88 nM

EC50 (human MC1 receptor; [2]): 1.06 nM
Compound: CCCCCCCCNC(=O)[C@H](Cc1c[nH]c2ccccc12)NC(=O)[C@H](CCCNC(=N)N)NC(=O)[C@@H](Cc1ccccc1)NC(=O)[C@H](Cc1c[nH]cn1)NC(=O)CNC(=O)c1ccccc1 [(I-f), Bz-Gly-His-D-Phe-Arg-Trp-NHOctyl *2TFA] (HELM PEPTIDE1{[O=C(c1ccccc1)[*:2]].G.H.[dF].R.W.[CCCCCCCCN[*:1]]}$$$$V2.0)

Compound: N=C(N)NCCC[C@H](NC(=O)[C@@H](Cc1ccccc1)NC(=O)[C@H](Cc1c[nH]cn1)NC(=O)CNC(=O)c1ccccc1)C(=O)N[C@H](Cc1ccccc1)C(N)=O [(I-g), Bz-Gly-His-D-Phe-Arg-D-Phe-NH2 *2TFA] (HELM PEPTIDE1{[O=C(c1ccccc1)[*:2]].G.H.[dF].R.[dF].[am]}$$$$V2.0)
EC50 (human MC1 receptor; [2]): 1.79 nM

Compound: NCC[C@H](NC(=O)[C@@H](Cc1ccccc1)NC(=O)[C@H](Cc1c[nH]cn1)NC(=O)CNC(=O)c1ccccc1)C(=O)N[C@@H](Cc1c[nH]c2ccccc12)C(N)=O [(I-h), Bz-Gly-His-D-Phe-Dab-Trp-NH2 *2TFA] (HELM PEPTIDE1{[O=C(c1ccccc1)[*:2]].G.H.[dF].[Dab].W.[am]}$$$$V2.0)
EC50 (human MC1 receptor; [2]): 7.51 nM

Compound: N=C(N)NCCC[C@H](NC(=O)[C@@H](Cc1ccccc1)NC(=O)[C@H](Cc1cnc[nH]1)NC(=O)CNC(=O)c1ccccc1)C(=O)N(CCc1c[nH]c2ccccc12)CC(N)=O [(I-i), Bz-Gly-His-D-Phe-Arg-(N-IndEt)Gly-NH2 *2TFA] (HELM PEPTIDE1{[O=C(c1ccccc1)[*:2]].G.H.[dF].R.[O=C(CN(CCc1c[nH]c2ccccc12)[*:1])[*:2]].[am]}$$$$V2.0)
EC50 (human MC1 receptor; [2]): 4.4 nM

Compound: CCCN(CCC)C(=O)[C@H](Cc1c[nH]c2ccccc12)NC(=O)[C@H](CCCNC(=N)N)NC(=O)[C@@H](Cc1ccccc1)NC(=O)[C@@H](Cc1c[nH]cn1)NC(=O)CNC(=O)c1ccccc1 [Compound R1, Bz-Gly-D-His-D-Phe-Arg-Trp-N(Propyl)2 *2TFA, reference compound] (HELM PEPTIDE1{[O=C(c1ccccc1)[*:2]].G.[dH].[dF].R.W.[CCCN(CCC)[*:1]]}$$$$V2.0)
EC50 (human MC1 receptor): 36 nM

Compound: CCCN(CCC)C(=O)[C@H](Cc1c[nH]c2ccccc12)NC(=O)[C@H](CCCNC(=N)N)NC(=O)[C@H](Cc1ccccc1)NC(=O)[C@H](Cc1c[nH]cn1)NC(=O)CNC(=O)c1ccccc1 [Compound R2, Bz-Gly-His-Phe-Arg-Trp-N(Propyl)2 *2TFA, reference compound] (HELM PEPTIDE1{[O=C(c1ccccc1)[*:2]].G.H.F.R.W.[CCCN(CCC)[*:1]]}$$$$V2.0)
EC50 (human MC1 receptor): 51.4 nM

Compound: CCCN(CCC)C(=O)[C@H](Cc1c[nH]c2ccccc12)NC(=O)[C@@H](CCCNC(=N)N)NC(=O)[C@@H](Cc1ccccc1)NC(=O)[C@H](Cc1c[nH]cn1)NC(=O)CNC(=O)c1ccccc1 [Compound R3, Bz-Gly-His-D-Phe-D-Arg-Trp-N(Propyl)2 *2TFA, reference compound] (HELM PEPTIDE1{[O=C(c1ccccc1)[*:2]].G.H.[dF].[dR].W.[CCCN(CCC)[*:1]]}$$$$V2.0)
EC50 (human MC1 receptor): 70.1 nM

EC50 (human MC1 receptor; [2]): 42.9 nM
Compound: N=C(N)NCCC[C@H](NC(=O)[C@@H](Cc1ccccc1)NC(=O)[C@H](Cc1c[nH]cn1)NC(=O)CNC(=O)c1ccccc1)C(=O)NCCc1c[nH]c2ccccc12 [Compound R4, Bz-Gly-His-D-Phe-Arg-Tryptamide *2TFA, reference compound] (HELM PEPTIDE1{[O=C(c1ccccc1)[*:2]].G.H.[dF].R.[c1ccc2c(CCN[*:1])c[nH]c2c1]}$$$$V2.0)
